pEC50: −log10 of the molar value.
Molecular target: T1, hGPR40 (Homo sapiens, UniProt O14842)
T1 construct: 3x FLAG; expressed in transfected cells
Experiment: FDSS-Based Intracellular Calcium Assay
Format: cell-based
Conditions: cells expressing GPR40, intracellular Ca2+ response
Method in brief: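 Flag-tagged GPR40-expressing cells plated overnight in serum-free, phenol red-free DMEM. Compounds added from DMSO stocks, diluted in assay buffer and added as 3x solution. Intracellular Ca^2+ flux read by fluorescence on an FDSS reader.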

T1 sequence (O14842 whole entry): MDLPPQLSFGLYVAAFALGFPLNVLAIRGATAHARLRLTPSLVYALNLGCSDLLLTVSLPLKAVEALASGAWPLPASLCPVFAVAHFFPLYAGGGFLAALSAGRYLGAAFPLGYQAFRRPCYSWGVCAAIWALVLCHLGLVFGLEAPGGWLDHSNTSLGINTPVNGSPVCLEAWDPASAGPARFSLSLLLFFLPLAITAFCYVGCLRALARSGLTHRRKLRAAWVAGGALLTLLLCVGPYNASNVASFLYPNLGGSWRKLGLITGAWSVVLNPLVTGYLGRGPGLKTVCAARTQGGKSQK

Compound | pEC50
COc1ccc(Cl)c(-c2ccc(Cc3ccc(N4N=C(C#N)CC4CC(=O)O)cc3)c(C)c2)c1 (racemic) [Example 40, 2-(1-(4-((2′-chloro-5′-methoxy-3-methylbiphenyl-4-yl)methyl)phenyl)-3-cyano-4,5-dihydro-1H-pyrazol-5-yl)acetic acid] | 6.92
COc1ccc(F)c(-c2ccc(Cc3ccc(N4N=C(c5ccc(Cl)cc5)[C@@H](C)[C@@H]4CC(=O)O)cc3)c(C)c2)c1 (single isomer, unassigned) [Example 66, isomer 2] | 6.29
COc1ccc(F)c(-c2ccc(Oc3ccc(N4N=C(c5ncco5)CC4CC(=O)O)cc3)c(C)c2)c1 (single isomer, unassigned) [Example 8, Isomer 2, 2-(1-(4-(2′-fluoro-5′-methoxy-3-methylbiphenyl-4-yloxy)phenyl)-3-(oxazol-2-yl)-4,5-dihydro-1H-pyrazol-5-yl)acetic acid] | 5.94
COc1ccc(F)c(-c2ccc(Cc3ccc(N4N=C(C(F)(F)F)C(C)C4CC(=O)O)cc3)c(Cl)c2)c1 (single isomer, unassigned) [Example 60, Isomer 2, 22-(1-(4-((3-chloro-2′-fluoro-5′-methoxy-[1,1′-biphenyl]-4-yl)methyl)phenyl)-4-methyl-3-(trifluoromethyl)-4,5-dihydro-1H-pyrazol-5-yl)acetic acid] | 7.40

Source: US9656963B2 (BRISTOL-MYERS SQUIBB COMPANY, priority 2012, dated 2017)
